Assay results taken from patent US20050009732A1, “Method of treatment and agents useful for same” (Medvet Science Pty Ltd., priority 2003, published 2005).
Starred links: 1 amine or outer side, 2 acyl side, 3 side chain; linkers in the order of their positions; H or OH if unused. Positions of bridges follow the written chain, without caps; N, C: chain ends. Non-standard residues stand in square brackets, D forms with d. Residues, ends and D or L forms follow the SMILES beside them. Chains are numbered I, II in the order given. Actinocin(9to1) = Cc1c2oc3c(C)ccc(C(=O)[*:1])c3nc-2c(C(=O)[*:2])c(N)c1=O; NMeV = CN[C@H](C(=O)O)C(C)C; Sar = CNCC(=O)O

Tests used:
Type in all cases: cell-based, human
[1] = tested on: intracellular Ca2+ mobilization in MCF-7 cells; assay: Measurement of [Ca2+]i in Fluo-3 loaded MCF-7 cells; details: for effect on E2-induced rise of [Ca2+]i: pretreatment then E2 (DMS 10 μM 30 min; ICI 10 μM; BHQ 100 nM; EGTA 2 mM; 2-APB 75 μM); for effect on [Ca2+]i when added alone: S1P 100 nM, E2-BSA 1 μM
Description: The fluorescence of the cells was monitored at an excitation wavelength of 490 nm and an emission wavelength of 525 nm. Each recording was calibrated by determining the maximal uptake of calcium (Fmax) in the presence of 0.1% Triton X as well as the level of autofluorescence (Fmin), after quenching Fluo-3/AM fluorescence with 1 mM Mn2^+.

[2] = tested on: SK activity in MCF-7 cells; assay: SK activity assay in MCF-7 cells; details: for effect on E2-mediated SK activation: pretreatment (ICI 10 μM 1 h; PTX 50 ng/ml 16 h) then 10 nM E2
Description: (§1) Briefly, after desired treatments the cells were washed with ice-cold PBS, scraped from the culture dishes and homogenized in lysis buffer containing 20 mM Tris (pH 7.4), 20% glycerol, 1 mM DTT, 1 mM EDTA, 10 μM MgCl2, 1 mM Na3VO4, 15 mM NaF, 10 μg/ml leupeptin and aprotinin, 1 mM PMSF and 0.5 mM 4-deoxypyridoxine. After centrifugation at 13,000×g for 30 min, SK activity was measured by incubating the cytosolic fraction with 5 μM sphingosine dissolved in 0.1% Triton X-100 and [γ^32P]ATP (1 mM, 0.5 mCi/ml) for 30 min at 37° C. as described previously (Pitson et al, 2000, supra; Xia, P., 1998, supra). The enzyme activity was normalized by total protein concentration of each sample.

MCF-7 cells [3] = assay: Cell growth assay (MTS) in MCF-7 cells; details: 10 nM E2, in the absence of serum
Description: To assess cell proliferation, we used the CellTiter 96 AQueous proliferation assay (Promega Corp.) that is based on metabolic conversion of a tetrazolium compound MTS to a colored product by living cells as described in the manufacturer's protocols. Cells (4×10^3 cell/well) were seeded in 4 to 6 replicates into 96-well plates and incubated at 37° C. in 5% CO2 with or without E2 (10 nM) in phenol-red free media for a desired time period. The medium was changed every 2-3 days. The absorbance intensity of the MTS product is directly proportional to the number of viable cells in culture when cell number is between 2000 and 200 000, otherwise the exponential dependence was determined. Total cell numbers were calculated based on calibration curves.

[4] = tested on: Erk1/2 phosphorylation in MCF-7 cells; assay: Erk1/2 phosphorylation by Western blotting in MCF-7 cells
Description: Cells were harvested and lysed by sonication in lysis buffer containing 50 mM Tris/HCl (pH 7.4), 10% glycerol, 0.5% Triton-X-100, 150 mM NaCl, 1 mM dithiothreitol, 2 mM Na3VO4, 10 mM NaF, 1 mM EDTA and protease inhibitors (Complete; Roche Molecular Biochemicals). Protein concentrations of the cell lysates were determined with a Bio-Rad Dc protein assay kit (Bio-Rad Laboratories, CA). Aliquots of cell lysates containing 30-50 μg of proteins were resolved by 12% SDS-PAGE and transferred to Hybond-P membranes (Amersham Biosciences, Inc.). The membranes were then probed with appropriate antibodies according to standard method as described previously (Pitson, S. M., 2000, supra). The immunocomplexes were detected with an enhanced chemiluminescence PLUS kit (Amersham Pharmacia Biosciences) and by using Typhoon 9410 Variable Mode Imager (Amersham Pharmacia Biotechnologies).

MCF-7 cells [5] = assay: Focus formation assay in MCF-7 cells; details: 10 nM E2, 10-day culture
Description: MCF-7 cells were seeded into 24-well plastic tissue culture plates at a density of 1×10^5 cells/ml/well, and maintained in phenol-red free media containing 10% FCS until the cells reached confluent. The cells were then refed at 24 h before first treatment with or without 10 nM E2 and then every 2-3 days thereafter with 1% FCS medium. After 5, 10 and 14 days the cultures were photographed and number of foci were counted. For colony assay, cells (1×10^4) suspended in 2 ml of 0.36% agar (Becton Dickinson, Sparks, MD) with phenol-red free growth medium were added on a base layer of 0.72% agar containing culture medium as described previously (Xia, P., Gamble, J. R., Wang, L., Pitson, S. M., Moretti, P. A., Wattenberg, B. W., D'andrea, R. J., and Vadas, M. A. (2000) Curr. Biol., 10: 1527-1530). After 14 days of incubation, the colonies were stained with MTT and counted. All experiments were done at least three times using triplicates per experimental point. Average was assessed by counting the number of colonies under low magnification (×20) at four points on each well.

[6] = tested on: SK activity in MDA-MB-231 cells; assay: SK activity assay in MDA-MB-231 cells; details: 10 nM E2, 15 min or 6 hours
Description: as §1

Molecule: 4-hydroxytamoxifen [OH-Tam]
- effect on E2-induced rise of [Ca2+]i [1]: not prevented

Molecule: 17β-estrodiol [E2]
- SK activity after additional dose of E2 ([2]; MCF-7 cells pretreated with E2 for 16 h, pulsed with additional 10 nM E2): additive increase
- prolonged effect on SK activity ([2]; MCF-7 cells, 10 nM E2, after 6 hours, remained more than 24 hours): significant increase
- maximum SK activity ([2]; MCF-7 cells, 10 nM E2, within 15 min): 240±25 % of basal
- concentration at which the E2-induced SK activity reaches a maximum ([2]; MCF-7 cells, increasing doses, 15 min): 1 µM
- effect on cell growth (MCF-7 cells [3]): stimulated cell growth
- time to maximal level of [Ca2+]i ([1]; E2 1 nM): 30 ± 10 s
- effect on Erk 1/2 activity ([4]; 10 nM E2): significant increase
- time of maximal Erk 1/2 activity ([4]; 10 nM E2, basal levels by 60 min): ≤ 15 min
- foci formation (MCF-7 cells [5]): able to form solid cell foci
- SK activity [6]: No increased activity

Molecule: 17β-estrodiol-BSA [E2-BSA]
- effect on [Ca2+]i when added alone [1]: same extent as E2

Molecule: NCCOB(c1ccccc1)c1ccccc1 [2-APB, 2-Aminoethoxydiphenyl borate]
- effect on E2-induced rise of [Ca2+]i [1]: unable to effectively abolish

Molecule: CC(C)(C)c1cc(O)ccc1O [BHQ, tert-butylhydroquinone]
- effect on E2-induced rise of [Ca2+]i [1]: strongly reduced

Molecule: O=C(O)CN(CCOCCOCCN(CC(=O)O)CC(=O)O)CC(=O)O [EGTA]
- effect on E2-induced rise of [Ca2+]i [1]: slightly decreased

Molecule: C[C@]12CC[C@@H]3c4ccc(O)cc4C[C@@H](CCCCCCCCC[S+]([O-])CCCC(F)(F)C(F)(F)F)[C@H]3[C@@H]1CC[C@@H]2O (stereo partly drawn) [ICI 182,780]
- effect on E2-mediated SK activation ([2]; MCF-7 cells): no influence
- effect on E2-induced rise of [Ca2+]i [1]: not prevented

Molecule: COc1cccc(-c2cc(=O)c3ccccc3o2)c1N [PD098095]
- effect on E2-promoted phosphorylation of Erk1/2 ([4]; 100 μM pretreatment 30 min, 10 nM E2): blocked

Molecule: CCCCCCCCCCCCCC(=O)O[C@@H]1[C@@H](C)[C@@]2(O)[C@@H](C=C(CO)C[C@]3(O)C(=O)C(C)=C[C@@H]23)[C@@H]2C(C)(C)[C@]12OC(C)=O [PMA, phorbol 12-myristate 13-acetate]
- increase in SK activity over basal levels ([2]; PMA 100 ng/ml, 30 min, SK and empty-vector transfected MCF-7 cells): approximately 2 fold

Molecule: CCCCCCCCCCCCC/C=C/[C@@H](O)[C@@H](N)COP(=O)(O)O [S1P, sphingosine-1-phosphate]
- effect on [Ca2+]i when added alone [1]: resulted in an increase

Molecule: CC/C(=C(\c1ccccc1)c1ccc(OCCN(C)C)cc1)c1ccccc1 [Tamoxifen]
- effect on E2-mediated SK activation ([2]; MCF-7 cells): no influence

Molecule: Cc1c2oc3c(C)ccc(C(=O)N[C@@H]4C(=O)N[C@H](C(C)C)C(=O)N5CCC[C@H]5C(=O)N(C)CC(=O)N(C)[C@@H](C(C)C)C(=O)O[C@@H]4C)c3nc-2c(C(=O)N[C@@H]2C(=O)N[C@H](C(C)C)C(=O)N3CCC[C@H]3C(=O)N(C)CC(=O)N(C)[C@@H](C(C)C)C(=O)O[C@@H]2C)c(N)c1=O [actinomycin D] (I: T[dV]P[Sar][NMeV] / II: T[dV]P[Sar][NMeV]; ester I:1-I:C, II:1-II:C; linker I:N-II:N via Actinocin(9to1))
- effect on first peak of E2-induced SK activity ([2]; MCF-7 cells, 1 μM actinomycin D pretreatment 4 h, 10 nM E2): no overt effect
- effect on delayed E2-induced activation of SK ([2]; MCF-7 cells, 1 μM actinomycin D, 10 nM E2 prolonged time course): abrogated

Molecule: pertussis toxin
- effect on E2-mediated SK activation ([2]; MCF-7 cells): strongly abrogated
